According to US8653100B2 (AbbVie Inc., priority 2008, dated 2014):
Counter-ions that a name gives are not always drawn. Blank lines part the entries; values can stand above or below the compound they belong to.

Columns and labels:
[1] = molecular target: human GlyT1c (Homo sapiens (Human), UniProt P48067); assay: [3H]-Glycine uptake into recombinant CHO cells expressing human GlyT1; type: cell-based; settings: hGlyT1c_5_CHO cells, 200 nM [3H]-glycine
Summary of the method: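 hGlyT1c-expressing CHO cells plated at 20,000 cells/well and cultured 24 h; [3H]-glycine incorporation read continuously by solid-phase scintillation for up to 3 h. IC50 from four-parameter logistic fit using the linear uptake phase between 60 and 120 min.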

[2] = molecular target: human GlyT1c transporter (Homo sapiens (Human), UniProt P48067); assay: Radioligand binding assay using recombinant CHO cell membranes expressing human GlyT1; settings: examples 88-204, radioligand not specified by footnote, read-out: radioligand binding Kiapp
Sequence of human GlyT1c transporter (P48067 whole entry): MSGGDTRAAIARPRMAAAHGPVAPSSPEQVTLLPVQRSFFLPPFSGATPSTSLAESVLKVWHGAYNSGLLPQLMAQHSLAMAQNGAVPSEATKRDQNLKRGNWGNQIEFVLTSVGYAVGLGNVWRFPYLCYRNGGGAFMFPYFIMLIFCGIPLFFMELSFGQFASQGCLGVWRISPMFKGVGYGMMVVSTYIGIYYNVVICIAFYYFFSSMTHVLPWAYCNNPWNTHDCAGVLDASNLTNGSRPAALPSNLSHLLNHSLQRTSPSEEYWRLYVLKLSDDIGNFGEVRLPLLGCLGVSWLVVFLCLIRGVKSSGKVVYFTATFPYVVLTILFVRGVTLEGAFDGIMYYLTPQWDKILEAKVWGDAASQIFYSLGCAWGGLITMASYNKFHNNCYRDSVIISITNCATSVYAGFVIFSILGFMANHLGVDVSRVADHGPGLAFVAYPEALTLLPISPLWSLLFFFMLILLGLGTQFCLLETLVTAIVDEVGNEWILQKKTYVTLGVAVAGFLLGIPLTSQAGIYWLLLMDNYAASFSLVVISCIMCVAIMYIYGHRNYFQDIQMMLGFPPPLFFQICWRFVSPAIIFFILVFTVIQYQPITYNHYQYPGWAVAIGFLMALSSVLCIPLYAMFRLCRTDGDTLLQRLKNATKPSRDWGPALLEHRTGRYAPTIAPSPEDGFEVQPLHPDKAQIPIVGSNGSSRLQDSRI
Summary of the method: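 Apparent Ki values were derived by Cheng-Prusoff from one-site IC50 fits of displacement curves. Membranes from recombinant CHO cells (human GlyT1c, 50 μg/ml) were incubated 1 h at room temperature with 0.5 nM [^3H]-(R)-NPTS and test compound (1% DMSO, pH 7.5 buffer), with 10 μM Org24598 for non-specific binding, then filtered and counted.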

Sequence of human GlyT1c (P48067 whole entry): as above

SMILES: O=S(=O)(NCCOc1ccc2c(c1)[C@@H](C1(c3ccc(Cl)cc3)CCC1)NCC2)c1cccnc1 [Example 182, N-[2-({(1R)-1-[1-(4-Chlorophenyl)cyclobutyl]-1,2,3,4-tetrahydroisoquinolin-7-yl}oxy)ethyl]pyridine-3-sulfonamide hydrochloride]
IC50 ([1]; hydrochloride): ≤ 10 µM | Ki [2]: ≤ 10 µM

SMILES: CC(C)NCCCS(=O)(=O)NCCOc1ccc2c(c1)C(C1(c3ccc(Cl)cc3)CCC1)NCC2 (centres unmarked) [Example 197, N-[2-({1-[1-(4-Chlorophenyl)cyclobutyl]-1,2,3,4-tetrahydroisoquinolin-7-yl}oxy)ethyl]-3-(propan-2-ylamino)propane-1-sulfonamide (2E)-but-2-enedioate]
IC50 [1]: ≤ 100 µM | Ki [2]: ≤ 10 µM

SMILES: O=S(=O)(CCCN1CCCCC1)NCCOc1ccc2c(c1)C(C1(c3ccc(Cl)cc3)CCC1)NCC2 (centres unmarked) [Example 200, N-[2-({1-[1-(4-Chlorophenyl)cyclobutyl]-1,2,3,4-tetrahydroisoquinolin-7-yl}oxy)ethyl]-3-(piperidin-1-yl)propane-1-sulfonamide (2E)-but-2-enedioate]
IC50 [1]: ≤ 10 µM | Ki [2]: ≤ 100 µM

SMILES: O=S(=O)(CCCN1CCOCC1)NCCOc1ccc2c(c1)C(C1(c3ccc(Cl)cc3)CCC1)NCC2 (centres unmarked) [Example 201, N-[2-({1-[1-(4-Chlorophenyl)cyclobutyl]-1,2,3,4-tetrahydroisoquinolin-7-yl}oxy)ethyl]-3-(morpholin-4-yl)propane-1-sulfonamide (2E)-but-2-enedioate]
IC50 [1]: ≤ 100 µM | Ki [2]: ≤ 100 µM

SMILES: CCNC(=O)NCCS(=O)(=O)NCCOc1ccc2c(c1)C(C1(c3ccc(Cl)cc3)CCC1)NCC2 (centres unmarked) [Example 202, N-[2-({1-[1-(4-Chlorophenyl)cyclobutyl]-1,2,3,4-tetrahydroisoquinolin-7-yl}oxy)ethyl]-2-[(ethylcarbamoyl)amino]ethanesulfonamide (2E)-but-2-enedioate]
IC50 [1]: ≤ 10 µM | Ki [2]: ≤ 100 µM

Second part, the compound after the results:

IC50 [1]: ≤ 10 µM | Ki [2]: ≤ 10 µM
SMILES: CN(C)CCCS(=O)(=O)NCCOc1ccc2c(c1)C(C1(c3ccc(Cl)cc3)CCC1)NCC2 (centres unmarked) [Example 181, N-[2-({1-[1-(4-Chlorophenyl)cyclobutyl]-1,2,3,4-tetrahydroisoquinolin-7-yl}oxy)ethyl]-3-(dimethylamino)propane-1-sulfonamide (2E)-but-2-enedioate]

IC50 [1]: ≤ 10 µM | Ki [2]: ≤ 10 µM
SMILES: CCCN1CCN(S(=O)(=O)NCCOc2ccc3c(c2)C(C2(c4ccc(Cl)cc4)CCC2)NCC3)CC1 (centres unmarked) [Example 183, N-[2-({1-[1-(4-Chlorophenyl)cyclobutyl]-1,2,3,4-tetrahydroisoquinolin-7-yl}oxy)ethyl]-4-propylpiperazine-1-sulfonamide dihydrochloride]

IC50 [1]: ≤ 10 µM | Ki [2]: ≤ 10 µM
SMILES: CCCNCCCS(=O)(=O)NCCOc1ccc2c(c1)C(C1(c3ccc(Cl)cc3)CCC1)NCC2 (centres unmarked) [Example 186, N-[2-({1-[1-(4-Chlorophenyl)cyclobutyl]-1,2,3,4-tetrahydroisoquinolin-7-yl}oxy)ethyl]-3-(propylamino)propane-1-sulfonamide (2E)-but-2-enedioate]

IC50 [1]: ≤ 10 µM | Ki [2]: ≤ 10 µM
SMILES: CCNCCCS(=O)(=O)NCCOc1ccc2c(c1)C(C1(c3ccc(Cl)cc3)CCC1)NCC2 (centres unmarked) [Example 187, N-[2-({1-[1-(4-Chlorophenyl)cyclobutyl]-1,2,3,4-tetrahydroisoquinolin-7-yl}oxy)ethyl]-3-(ethylamino)propane-1-sulfonamide]

IC50 [1]: ≤ 10 µM | Ki [2]: ≤ 10 µM
SMILES: CCN(CC)CCCS(=O)(=O)NCCOc1ccc2c(c1)C(C1(c3ccc(Cl)cc3)CCC1)NCC2 (centres unmarked) [Example 194, N-[2-({1-[1-(4-Chlorophenyl)cyclobutyl]-1,2,3,4-tetrahydroisoquinolin-7-yl}oxy)ethyl]-3-(diethylamino)propane-1-sulfonamide]
